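How tested: cells in 96-well plates exposed to compound for 48 hours at five concentrations. The concentration for 50% growth inhibition is given as GI50. At the TGI there is no net growth.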
How the values were obtained:
Assay in all cases: NCI anticancer screen, dose series, 48 h
[1] = system: OVCAR-8 ovarian
[2] = system: CCRF-CEM leukemia
[3] = system: MOLT-4 leukemia
[4] = system: OVCAR-4 ovarian
[5] = system: OVCAR-3 ovarian
[6] = system: K-562 leukemia
[7] = system: SF-295 CNS
[8] = system: HOP-92 NSCLC
[9] = system: DU-145 prostate
[10] = system: NCI-H23 lung
[11] = system: A498 renal
[12] = system: OVCAR-5 ovarian
[13] = system: A549 NSCLC
[14] = system: HCT-116 colon
[15] = system: PC-3 prostate
[16] = system: NCI-H226 lung
[17] = system: EKVX NSCLC
[18] = system: SK-OV-3 ovarian
[19] = system: UACC-257 melanoma
[20] = system: MALME-3M melanoma
[21] = system: RPMI-8226 leukemia
[22] = system: SNB-19 CNS
[23] = system: NCI-H522 lung
[24] = system: 786-0 renal
[25] = system: SN12C renal
[26] = system: SF-539 CNS
[27] = system: NCI-H460 lung
[28] = system: HOP-62 NSCLC
[29] = system: TK-10 renal
[30] = system: KM12 colon
[31] = system: COLO 205 colon
[32] = system: U251 CNS
[33] = system: SR leukemia
[34] = system: BT-549 breast
[35] = system: UACC-62 melanoma
[36] = system: NCI/ADR-RES ovarian
[37] = system: SNB-75 CNS
[38] = system: HL-60(TB) leukemia
[39] = system: SK-MEL-2 melanoma
[40] = system: IGROV1 ovarian
[41] = system: SF-268 CNS
[42] = system: LOX IMVI melanoma
[43] = system: HCT-15 colon
[44] = system: T-47D breast
[45] = system: HCC-2998 colon
[46] = system: SW-620 colon
[47] = system: HS 578T breast
[48] = system: MCF7 breast
[49] = system: UO-31 renal
[50] = system: ACHN renal
[51] = system: MDA-MB-435
[52] = system: MDA-MB-231 breast
[53] = system: HT29 colon
[54] = system: SK-MEL-5 melanoma
[55] = system: SK-MEL-28 melanoma
[56] = system: RXF 393 renal
[57] = system: CAKI-1 renal

Compound `CC/C(=N\Nc1nc2ccccc2n1C)c1ccccn1` has a GI50 [1] of 92.9 nM, a TGI [1] of 14000 nM and a GI50 [2] of 29.4 nM. The TGI [2] was greater than 36000 nM, the GI50 [3] was less than 17.4 nM and the TGI [3] was 7470 nM. It also gave a GI50 [4] of less than 18.5 nM, a TGI [4] of 4680 nM and a GI50 [5] of less than 10 nM. The TGI [5] was 10900 nM, the GI50 [6] was 10.2 nM and the TGI [6] was greater than 100000 nM. For the same compound, the GI50 [7] was 170 nM, the TGI [7] was 1280 nM and the GI50 [8] was 184 nM. For the same compound, the TGI [8] was 4820 nM, the GI50 [9] was 127 nM and the TGI [9] was 12700 nM. For the same compound, the GI50 [10] was 45.2 nM, the TGI [10] was 17600 nM and the GI50 [11] was 153 nM. It also gave a TGI [11] of 837 nM, a GI50 [12] of 156 nM and a TGI [12] of 15600 nM. The GI50 [13] was 103 nM, the TGI [13] was 11400 nM and the GI50 [14] was less than 10 nM. The TGI [14] was 11800 nM, the GI50 [15] was 32.7 nM and the TGI [15] was 13800 nM. For the same compound, the GI50 [16] was 117 nM, the TGI [16] was 1050 nM and the GI50 [17] was 36.9 nM. It also gave a TGI [17] of 7470 nM, a GI50 [18] of 64 nM and a TGI [18] of 1580 nM. It also gave a GI50 [19] of 73.5 nM, a TGI [19] of 2640 nM and a GI50 [20] of 127 nM. The TGI [20] was 10300 nM, the GI50 [21] was 33 nM and the TGI [21] was 6290 nM. The GI50 [22] was 281 nM, the TGI [22] was 14400 nM and the GI50 [23] was 39.2 nM. It also gave a TGI [23] of 2330 nM, a GI50 [24] of 211 nM and a TGI [24] of 1520 nM. The GI50 [25] was 128 nM, the TGI [25] was 12700 nM and the GI50 [26] was 182 nM. The TGI [26] was 1620 nM, the GI50 [27] was 114 nM and the TGI [27] was 1820 nM. It also gave a GI50 [28] of 175 nM, a TGI [28] of 3340 nM and a GI50 [29] of 500 nM. The TGI [29] was 12300 nM, the GI50 [30] was 190 nM and the TGI [30] was 11300 nM. The GI50 [31] was less than 10 nM, the TGI [31] was 2940 nM and the GI50 [32] was 86.3 nM. The TGI [32] was 11000 nM, the GI50 [33] was 42.8 nM and the TGI [33] was 12400 nM. It also gave a GI50 [34] of 243 nM, a TGI [34] of 12800 nM and a GI50 [35] of 142 nM. The TGI [35] was 839 nM, the GI50 [36] was 38.2 nM and the TGI [36] was 4900 nM. The GI50 [37] was 478 nM, the TGI [37] was 8840 nM and the GI50 [38] was 25.2 nM. For the same compound, the TGI [38] was 319 nM, the GI50 [39] was 589 nM and the TGI [39] was 14900 nM. The GI50 [40] was 29.4 nM, the TGI [40] was 7760 nM and the GI50 [41] was 194 nM. The TGI [41] was 11100 nM, the GI50 [42] was 118 nM and the TGI [42] was 5320 nM. It also gave a GI50 [43] of 14.1 nM, a TGI [43] of 12900 nM and a GI50 [44] of less than 10 nM. For the same compound, the TGI [44] was 4590 nM, the GI50 [45] was 314 nM and the TGI [45] was 7230 nM. The GI50 [46] was 39.3 nM, the TGI [46] was 15000 nM and the GI50 [47] was 923 nM. It also gave a TGI [47] of 12700 nM, a GI50 [48] of 17.9 nM and a TGI [48] of 13900 nM. It also gave a GI50 [49] of 76.1 nM, a TGI [49] of 1160 nM and a GI50 [50] of less than 16 nM. The TGI [50] was 6280 nM, the GI50 [51] was 224 nM and the TGI [51] was 12700 nM. It also gave a GI50 [52] of 140 nM, a TGI [52] of 11800 nM and a GI50 [53] of less than 26.9 nM. The TGI [53] was 18000 nM, the GI50 [54] was 174 nM and the TGI [54] was 1390 nM. The GI50 [55] was 214 nM, the TGI [55] was 13500 nM and the GI50 [56] was 193 nM. For the same compound, the TGI [56] was 1410 nM, the GI50 [57] was 113 nM and the TGI [57] was 1980 nM.

— PubChem BioAssay (NCI)
